The values that follow come from ChEMBL document CHEMBL4742386, “4-oxo-3,4-dihydro-1,2,3-benzotriazine derivatives as modulators of gpr139” (2019).

Format in all cases: functional
Assay [1] can be described thus: Induction of c-Fos expression in C57BL/6 mouse assessed as cFos cell count in brain at 0.3 mg/kg for 2 hrs by immunohistochemistry (reference value: 470).
A short description of assay [2]: Induction of c-Fos expression in C57BL/6 mouse assessed as cFos cell count in brain at 3 mg/kg for 1 hr by immunohistochemistry (reference value: 470).
Assay [3] can be described thus: Induction of c-Fos expression in C57BL/6 mouse assessed as cFos cell count in brain at 0.03 mg/kg for 1 hr by immunohistochemistry (reference value: 470).
Assay [4] can be described thus: Induction of c-Fos expression in C57BL/6 mouse assessed as cFos cell count in brain at 0.3 mg/kg for 4 hrs by immunohistochemistry (reference value: 470).
A short description of assay [5]: Induction of c-Fos expression in C57BL/6 mouse assessed as cFos cell count in brain at 0.1 mg/kg for 1 hr by immunohistochemistry (reference value: 470).
Assay [6] in a line: Induction of c-Fos expression in C57BL/6 mouse assessed as cFos cell count in brain at 0.3 mg/kg for 1 hr by immunohistochemistry (reference value: 470).
A short description of assay [7]: Induction of c-Fos expression in C57BL/6 mouse assessed as cFos cell count in brain at 0.3 mg/kg for 1 hr by immunohistochemistry (reference value: 413.7).
Assay [8] in a line: Induction of c-Fos expression in C57BL/6 mouse assessed as cFos cell count in brain at 0.3 mg/kg by immunohistochemistry (reference value: 267).
Assay [9] is described as follows: Induction of c-Fos expression in C57BL/6 mouse assessed as cFos cell count in brain at 0.1 mg/kg for 5 days by immunohistochemistry (reference value: 352 to 450). To be noted: time 5 day.
The nature of assay [10]: Induction of c-Fos expression in C57BL/6 mouse assessed as cFos cell count in brain at 0.1 mg/kg by immunohistochemistry (reference value: 267).
The nature of assay [11]: Induction of c-Fos expression in C57BL/6 mouse assessed as cFos cell count in brain at 0.1 mg/kg for 1 hr by immunohistochemistry (reference value: 413.7).
Assay [12] in a line: Induction of c-Fos expression in C57BL/6 mouse assessed as cFos cell count in brain at 0.3 mg/kg for 2 hrs by immunohistochemistry (reference value: 413.7).
Assay [13] can be described thus: Induction of c-Fos expression in C57BL/6 mouse assessed as cFos cell count in brain at 3 mg/kg for 1 hr by immunohistochemistry (reference value: 413.7).
Assay [14] can be described thus: Induction of c-Fos expression in C57BL/6 mouse assessed as cFos cell count in brain at 0.3 mg/kg for 4 hrs by immunohistochemistry (reference value: 413.7).
Assay [15] in a line: Induction of c-Fos expression in C57BL/6 mouse assessed as cFos cell count in brain at 0.03 mg/kg by immunohistochemistry (reference value: 267).
Assay [16] can be described thus: Induction of c-Fos expression in C57BL/6 mouse assessed as cFos cell count in brain at 0.1 mg/kg for 10 days by immunohistochemistry (reference value: 450). To be noted: time 10 day.
Assay [17] in a line: Induction of c-Fos expression in C57BL/6 mouse assessed as cFos cell count in brain at 1 mg/kg by immunohistochemistry (reference value: 267).
Assay [18] in a line: Induction of c-Fos expression in C57BL/6 mouse assessed as cFos cell count in brain at 0.1 mg/kg for 1 days by immunohistochemistry (reference value: 352). To be noted: time 1 day.
Assay [19] can be described thus: Induction of c-Fos expression in C57BL/6 mouse assessed as cFos cell count in brain at 0.01 mg/kg by immunohistochemistry (reference value: 267).

For the molecule `COc1cccc2nnn(CC(=O)N[C@@H](C)c3ccc(C)cc3)c(=O)c12`, the Activity in assay [1] worked out at 2777; in [2] it was 2023; in [3], 1628; in [4], 865; in [5], 2243; in assay [6] it was 2458.
As to `C[C@H](NC(=O)Cn1nnc2ccccc2c1=O)c1ccc(OC(F)(F)F)cc1` [ZELATRIAZIN], the Activity in [7] stood at 1343; in assay [8], 1408; in assay [9] it was 1928; in [10], 1381; in assay [11], 787.7; in assay [12] it was 1400. The Activity in assay [13] amounted to 2365; in assay [14], 2170; in assay [15], 986.3; in assay [16], 1684; in assay [17], 1368; in [18], 1486. Moreover, the Activity in assay [19] was determined as 1376.
